Source: ChEMBL document CHEMBL5465560, “Selectivity Literature for EUbOPEN Chemogenomic Library” (2024)

How the values were obtained:
[1] = molecular target: T1, Histone-lysine N-methyltransferase SUV39H1 (Homo sapiens) (UniProt O43463); details: at 1 µM
T1 sequence (whole entry): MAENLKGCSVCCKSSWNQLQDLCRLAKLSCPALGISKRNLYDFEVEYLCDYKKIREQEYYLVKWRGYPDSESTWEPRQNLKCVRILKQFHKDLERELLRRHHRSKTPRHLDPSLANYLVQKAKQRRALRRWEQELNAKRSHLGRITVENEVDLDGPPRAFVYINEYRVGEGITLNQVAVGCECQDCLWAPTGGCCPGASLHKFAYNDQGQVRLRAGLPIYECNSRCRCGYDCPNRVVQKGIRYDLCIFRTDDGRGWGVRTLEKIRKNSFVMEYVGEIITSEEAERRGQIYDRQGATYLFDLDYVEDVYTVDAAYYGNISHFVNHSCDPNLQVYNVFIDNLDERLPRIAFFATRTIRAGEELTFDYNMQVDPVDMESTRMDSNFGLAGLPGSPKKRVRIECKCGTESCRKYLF

[2] = molecular target: T2, Serine/threonine-protein kinase DCLK2 (Homo sapiens) (UniProt Q8N568); experiment: Selectivity interaction (KinomeScan (DiscoverX)) EUB0000229b DCLK2; details: at 10 µM
T2 sequence (whole entry): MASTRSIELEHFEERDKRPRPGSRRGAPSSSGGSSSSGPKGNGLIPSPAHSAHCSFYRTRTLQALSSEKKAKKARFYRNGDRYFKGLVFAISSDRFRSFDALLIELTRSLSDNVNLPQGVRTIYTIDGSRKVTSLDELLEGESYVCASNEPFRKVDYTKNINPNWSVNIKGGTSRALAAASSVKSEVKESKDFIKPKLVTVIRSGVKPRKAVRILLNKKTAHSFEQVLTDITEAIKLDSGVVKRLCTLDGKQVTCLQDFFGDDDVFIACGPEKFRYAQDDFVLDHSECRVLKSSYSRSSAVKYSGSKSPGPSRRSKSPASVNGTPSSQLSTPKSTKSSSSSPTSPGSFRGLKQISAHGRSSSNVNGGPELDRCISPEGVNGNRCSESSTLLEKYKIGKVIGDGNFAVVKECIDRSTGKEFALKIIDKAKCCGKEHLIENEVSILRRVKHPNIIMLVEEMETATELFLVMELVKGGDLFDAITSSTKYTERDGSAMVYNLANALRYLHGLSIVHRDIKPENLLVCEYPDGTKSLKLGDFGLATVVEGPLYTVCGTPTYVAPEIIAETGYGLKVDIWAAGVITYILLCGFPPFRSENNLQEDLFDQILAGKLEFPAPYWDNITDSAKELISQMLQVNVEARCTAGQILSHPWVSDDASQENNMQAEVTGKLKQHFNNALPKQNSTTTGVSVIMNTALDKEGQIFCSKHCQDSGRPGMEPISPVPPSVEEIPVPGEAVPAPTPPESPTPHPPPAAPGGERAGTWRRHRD

[3] = molecular target: Ribosomal protein S6 kinase alpha-4 (Homo sapiens) (UniProt O75676); details: at 10 µM
Chain of Ribosomal protein S6 kinase alpha-4 (Homo sapiens) (O75676 whole entry, looked up): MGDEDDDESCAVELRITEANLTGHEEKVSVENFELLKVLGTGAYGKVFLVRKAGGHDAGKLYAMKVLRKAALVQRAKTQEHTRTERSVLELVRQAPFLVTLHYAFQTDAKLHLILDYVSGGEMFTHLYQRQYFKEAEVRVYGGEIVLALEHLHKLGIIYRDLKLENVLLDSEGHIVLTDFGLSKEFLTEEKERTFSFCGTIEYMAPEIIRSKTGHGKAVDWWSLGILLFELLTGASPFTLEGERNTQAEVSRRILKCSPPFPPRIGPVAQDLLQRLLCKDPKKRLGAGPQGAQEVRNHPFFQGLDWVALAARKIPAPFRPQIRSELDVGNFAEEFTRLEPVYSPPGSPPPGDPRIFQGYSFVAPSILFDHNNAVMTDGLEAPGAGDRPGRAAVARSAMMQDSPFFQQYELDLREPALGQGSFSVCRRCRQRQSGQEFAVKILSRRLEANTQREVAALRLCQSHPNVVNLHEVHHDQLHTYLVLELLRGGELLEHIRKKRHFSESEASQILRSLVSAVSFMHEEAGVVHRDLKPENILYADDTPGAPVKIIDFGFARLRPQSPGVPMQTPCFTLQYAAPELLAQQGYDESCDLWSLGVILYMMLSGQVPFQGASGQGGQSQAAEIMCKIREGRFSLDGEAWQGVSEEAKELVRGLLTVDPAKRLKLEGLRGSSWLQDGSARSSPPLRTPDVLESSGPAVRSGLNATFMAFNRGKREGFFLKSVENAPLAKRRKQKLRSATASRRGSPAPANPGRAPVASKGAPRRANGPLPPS

[4] = molecular target: T3, STE20-like serine/threonine-protein kinase (Homo sapiens, UniProt Q9H2G2); experiment: Selectivity interaction (ActivX KiNativ screen (kinase selectivity in THP-1 cell lysates)) EUB0000639a SLK; format: subcellular; details: lysate, at 5 µM
T3 sequence (Q9H2G2 whole entry, looked up, canonical isoform): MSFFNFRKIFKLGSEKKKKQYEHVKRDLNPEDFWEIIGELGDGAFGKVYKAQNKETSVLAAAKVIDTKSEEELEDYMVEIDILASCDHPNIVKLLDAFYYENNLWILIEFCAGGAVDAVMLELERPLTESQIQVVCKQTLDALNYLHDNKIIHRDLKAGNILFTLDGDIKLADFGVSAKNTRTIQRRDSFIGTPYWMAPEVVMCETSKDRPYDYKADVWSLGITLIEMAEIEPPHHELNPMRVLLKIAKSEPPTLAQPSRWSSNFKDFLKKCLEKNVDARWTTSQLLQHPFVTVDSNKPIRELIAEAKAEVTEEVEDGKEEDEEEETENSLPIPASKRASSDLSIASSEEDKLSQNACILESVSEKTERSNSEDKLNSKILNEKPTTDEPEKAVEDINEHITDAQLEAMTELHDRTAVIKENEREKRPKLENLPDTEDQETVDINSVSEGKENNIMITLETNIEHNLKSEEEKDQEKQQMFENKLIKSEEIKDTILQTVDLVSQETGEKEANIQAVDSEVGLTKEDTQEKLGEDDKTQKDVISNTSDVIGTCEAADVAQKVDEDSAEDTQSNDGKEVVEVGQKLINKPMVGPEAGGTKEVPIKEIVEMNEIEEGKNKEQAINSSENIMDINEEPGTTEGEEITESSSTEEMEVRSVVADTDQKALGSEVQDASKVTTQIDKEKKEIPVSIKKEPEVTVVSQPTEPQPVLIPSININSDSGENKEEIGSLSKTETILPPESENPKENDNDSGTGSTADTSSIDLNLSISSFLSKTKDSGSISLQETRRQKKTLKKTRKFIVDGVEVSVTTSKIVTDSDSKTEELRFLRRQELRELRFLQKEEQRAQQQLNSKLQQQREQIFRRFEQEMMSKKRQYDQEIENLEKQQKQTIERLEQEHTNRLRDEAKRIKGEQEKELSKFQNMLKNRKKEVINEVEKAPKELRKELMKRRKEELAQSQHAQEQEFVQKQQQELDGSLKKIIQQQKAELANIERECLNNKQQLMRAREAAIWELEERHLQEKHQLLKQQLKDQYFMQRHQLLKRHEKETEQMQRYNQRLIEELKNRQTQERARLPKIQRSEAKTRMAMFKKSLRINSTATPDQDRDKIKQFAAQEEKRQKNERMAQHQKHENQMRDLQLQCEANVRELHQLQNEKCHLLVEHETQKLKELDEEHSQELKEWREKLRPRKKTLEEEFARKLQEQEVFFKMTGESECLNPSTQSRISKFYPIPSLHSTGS

[5] = molecular target: Casein kinase I isoform epsilon (Homo sapiens, UniProt P49674); details: at 10 µM
Chain of Casein kinase I isoform epsilon (P49674 whole entry, looked up, canonical isoform): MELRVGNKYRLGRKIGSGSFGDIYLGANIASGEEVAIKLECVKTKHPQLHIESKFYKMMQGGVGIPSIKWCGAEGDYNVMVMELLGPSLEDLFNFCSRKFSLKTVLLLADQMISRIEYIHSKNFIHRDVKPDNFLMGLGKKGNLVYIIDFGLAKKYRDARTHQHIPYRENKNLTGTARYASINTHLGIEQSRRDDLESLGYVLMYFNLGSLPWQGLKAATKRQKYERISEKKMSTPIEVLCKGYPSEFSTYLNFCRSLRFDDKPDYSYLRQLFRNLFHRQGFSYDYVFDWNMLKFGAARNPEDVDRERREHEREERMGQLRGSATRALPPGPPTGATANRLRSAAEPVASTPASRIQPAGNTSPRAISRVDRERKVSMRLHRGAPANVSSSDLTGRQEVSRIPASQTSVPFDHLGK

[6] = molecular target: T3, STE20-like serine/threonine-protein kinase; experiment: Selectivity interaction (ActivX KiNativ screen (ex vivo kinase selectivity in human PBMCs)) EUB0001619a SLK; format: cell-based; details: PBMC, at 1 µM
[7] = molecular target: T4, Mitogen-activated protein kinase kinase kinase 19 (Homo sapiens) (UniProt Q56UN5); experiment: Selectivity interaction (KinomeScan (DiscoverX)) EUB0000607a MAP3K19; details: at 10 µM
T4 sequence (whole entry): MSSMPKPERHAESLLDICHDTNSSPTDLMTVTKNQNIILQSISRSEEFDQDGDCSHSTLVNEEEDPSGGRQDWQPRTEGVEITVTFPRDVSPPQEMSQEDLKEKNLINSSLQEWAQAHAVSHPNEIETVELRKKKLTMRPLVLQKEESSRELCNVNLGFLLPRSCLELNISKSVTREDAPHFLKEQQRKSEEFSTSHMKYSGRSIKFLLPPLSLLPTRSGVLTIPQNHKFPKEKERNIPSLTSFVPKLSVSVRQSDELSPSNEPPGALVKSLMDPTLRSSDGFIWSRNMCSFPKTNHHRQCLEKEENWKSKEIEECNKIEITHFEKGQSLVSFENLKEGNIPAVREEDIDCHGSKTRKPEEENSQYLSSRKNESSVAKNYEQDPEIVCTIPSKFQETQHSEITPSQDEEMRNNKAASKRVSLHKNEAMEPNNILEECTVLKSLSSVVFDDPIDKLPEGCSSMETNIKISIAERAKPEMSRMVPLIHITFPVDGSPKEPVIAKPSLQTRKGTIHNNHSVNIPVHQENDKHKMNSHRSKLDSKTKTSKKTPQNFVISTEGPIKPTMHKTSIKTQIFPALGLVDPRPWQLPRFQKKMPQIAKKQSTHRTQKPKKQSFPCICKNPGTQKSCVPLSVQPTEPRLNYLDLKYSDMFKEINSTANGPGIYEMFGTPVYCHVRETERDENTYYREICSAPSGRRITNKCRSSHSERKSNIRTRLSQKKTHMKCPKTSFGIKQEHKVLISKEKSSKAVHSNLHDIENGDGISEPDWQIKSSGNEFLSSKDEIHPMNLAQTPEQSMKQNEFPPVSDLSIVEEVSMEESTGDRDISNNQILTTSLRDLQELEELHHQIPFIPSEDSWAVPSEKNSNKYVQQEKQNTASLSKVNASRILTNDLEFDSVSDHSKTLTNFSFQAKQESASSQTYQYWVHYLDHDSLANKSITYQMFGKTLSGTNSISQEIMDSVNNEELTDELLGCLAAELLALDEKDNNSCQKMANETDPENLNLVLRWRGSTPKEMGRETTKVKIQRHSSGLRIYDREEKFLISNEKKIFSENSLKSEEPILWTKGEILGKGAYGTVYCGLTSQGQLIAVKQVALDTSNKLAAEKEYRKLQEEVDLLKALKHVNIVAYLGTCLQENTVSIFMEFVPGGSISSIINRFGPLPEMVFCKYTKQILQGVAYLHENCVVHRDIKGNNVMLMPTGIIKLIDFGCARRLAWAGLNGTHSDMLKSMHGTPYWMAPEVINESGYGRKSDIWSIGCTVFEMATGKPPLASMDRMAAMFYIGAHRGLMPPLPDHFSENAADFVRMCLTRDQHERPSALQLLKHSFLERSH

[8] = molecular target: NT-3 growth factor receptor (Homo sapiens, UniProt Q16288); experiment: Selectivity interaction (SelectScreen profiling (Invitrogen)) EUB0000607a NTRK3; details: at 2 µM
Chain of NT-3 growth factor receptor (Q16288 32-839 limits assumed): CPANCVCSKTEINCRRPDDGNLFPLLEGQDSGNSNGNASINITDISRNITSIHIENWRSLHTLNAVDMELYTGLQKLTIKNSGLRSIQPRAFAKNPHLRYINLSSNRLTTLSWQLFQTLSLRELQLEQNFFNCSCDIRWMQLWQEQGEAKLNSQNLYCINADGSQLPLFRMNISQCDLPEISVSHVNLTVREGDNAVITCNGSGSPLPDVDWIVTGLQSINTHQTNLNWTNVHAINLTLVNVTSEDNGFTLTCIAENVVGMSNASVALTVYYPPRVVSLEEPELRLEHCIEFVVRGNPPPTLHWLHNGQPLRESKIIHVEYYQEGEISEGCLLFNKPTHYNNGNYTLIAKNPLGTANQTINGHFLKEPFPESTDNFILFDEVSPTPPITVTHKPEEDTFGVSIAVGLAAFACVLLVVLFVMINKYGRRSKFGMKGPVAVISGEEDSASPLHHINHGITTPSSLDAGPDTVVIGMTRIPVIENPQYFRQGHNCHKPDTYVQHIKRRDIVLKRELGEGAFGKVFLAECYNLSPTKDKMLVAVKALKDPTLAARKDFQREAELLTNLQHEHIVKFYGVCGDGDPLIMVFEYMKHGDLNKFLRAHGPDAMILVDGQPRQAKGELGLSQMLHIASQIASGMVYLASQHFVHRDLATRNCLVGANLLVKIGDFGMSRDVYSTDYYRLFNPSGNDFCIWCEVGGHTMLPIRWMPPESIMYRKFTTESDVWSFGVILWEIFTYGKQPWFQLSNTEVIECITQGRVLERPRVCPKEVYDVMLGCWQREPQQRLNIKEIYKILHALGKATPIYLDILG

## CNCCN1CCC(c2cc(CN(C)C(=O)c3cccc(Oc4ccccc4)c3)ccn2)CC1
[1]
  % activity: > 90%

## COc1cc(N(C)c2ccnc3ccc(C(F)(F)F)cc23)cc(OC)c1OC
[2]
  % binding: 100%

## CCN(CC)CCCCNc1ncc2cc(-c3cc(OC)cc(OC)c3)c(NC(=O)NC(C)(C)C)nc2n1
[3]
  % of control: 100%

## CC[C@@H]1[C@H](F)C(=O)N[C@@H]1COc1nccc2cc(C(N)=O)c(OC)cc12 [ZIMLOVISERTIB]
[4]
  % of inhibition: -0.8%

## COCC(=O)NC/C=C/c1ccc2ncnc(Nc3ccc(Oc4ccc(C)nc4)c(C)c3)c2c1 [CP-724714]
[5]
  % of control: 100%

## N#Cc1cccc(-c2c[nH]c3ncnc(N4CCOCC4)c23)c1
[6]
  % of inhibition: 61%

## CNC(=O)Nc1ccc(-c2nc(N3CC4CCC(C3)O4)c3cnn(C4CCC5(CC4)OCCO5)c3n2)cc1
[7]
  % of control: 100%
[8]
  % of inhibition: 5%
